Results: patent publication US20210382058A1, “PATIENT SELECTION FOR TREATMENT OF MYC POSITIVE CANCERS WITH INDENOISOQUINOLINES” (Purdue Research Foundation, priority 2020, published 2021)
Like-named read-outs stand apart in the source and are kept apart here.

Columns and labels:
[1] = system: MYC protein expression in MCF-7 breast cancer cells; test: Western blotting of MYC protein level in MCF-7 cells; assay type: cell-based, human; conditions: for minimal effective concentration: Homo sapiens, MCF7, western blotting, MCF-7 cells, 0.5, 1, 2, and 4 μM, 24 hours, read-out: MYC Inhibition
Summary of the method: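 MCF-7 cells were exposed to compounds at 0.5, 1, 2 and 4 μM for 24 hours at 37° C. MYC was detected by immunoblot with ECL, using rabbit anti-MYC (1:1000) and anti-GAPDH (1:2000) as loading control.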

[2] = system: NCI-60 cancer cell lines; test: NCI-60 cancer cell line drug screen (GI50, MGM); assay type: cell-based, human; conditions: Homo sapiens; for GI50: read-out: Antiproliferative Activities [GI50 (μM)]; for mean GI50 across NCI-60 panel (MGM): average of GI50 values across the entire panel of NCI-60 cancer cell lines
Experimental: Cancer cells were incubated with the test compounds at five concentrations ranging from 100 μM to 10 nM for 48 h. […] The approximate average of GI50 values across the entire panel of NCI-60 cancer cell lines for each compound was recorded as the MGM value.

[3] = molecular target: T1, human topoisomerase I (Homo sapiens, UniProt P11387); conditions: relative topoisomerase I inhibition levels, previously determined, six levels (0 - 5, +++++ = 5); cited from earlier work
T1 sequence (P11387 1-765): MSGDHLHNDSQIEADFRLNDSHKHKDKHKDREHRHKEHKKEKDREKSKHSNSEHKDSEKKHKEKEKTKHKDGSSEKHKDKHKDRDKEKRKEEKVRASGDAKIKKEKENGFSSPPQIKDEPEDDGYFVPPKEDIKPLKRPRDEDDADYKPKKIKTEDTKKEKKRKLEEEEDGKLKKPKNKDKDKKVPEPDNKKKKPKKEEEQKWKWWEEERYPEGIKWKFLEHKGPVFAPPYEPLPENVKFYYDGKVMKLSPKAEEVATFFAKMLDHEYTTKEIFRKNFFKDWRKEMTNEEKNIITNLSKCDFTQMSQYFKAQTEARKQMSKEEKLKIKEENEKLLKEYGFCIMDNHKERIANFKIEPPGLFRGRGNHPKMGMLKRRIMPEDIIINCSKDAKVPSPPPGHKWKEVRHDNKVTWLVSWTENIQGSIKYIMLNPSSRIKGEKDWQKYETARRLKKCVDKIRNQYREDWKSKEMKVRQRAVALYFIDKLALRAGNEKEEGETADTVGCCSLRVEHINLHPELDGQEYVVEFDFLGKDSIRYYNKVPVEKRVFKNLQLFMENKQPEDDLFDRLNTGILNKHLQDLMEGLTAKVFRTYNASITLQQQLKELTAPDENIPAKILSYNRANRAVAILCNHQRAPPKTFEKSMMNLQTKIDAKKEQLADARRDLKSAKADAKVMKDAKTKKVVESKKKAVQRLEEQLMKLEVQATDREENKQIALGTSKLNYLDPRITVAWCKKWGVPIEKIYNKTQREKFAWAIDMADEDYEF

[4] = A549, Non-Small Cell Lung Cancer, A549/ATCC
[5] = COLO 205, Colon Cancer, COLO 205
[6] = DU-145, Prostate Cancer, DU-145
[7] = EKVX, Non-Small Cell Lung Cancer, EKVX
[8] = HCC 2998, Colon Cancer, HCC-2998
[9] = HOP-62, Non-Small Cell Lung Cancer, HOP-62
[10] = HOP-92, Non-Small Cell Lung Cancer, HOP-92
[11] = Hs-578T, Breast Cancer, HS 578T
[12] = IGROV-1, Ovarian Cancer, IGROV1
[13] = MDA-MB-231, Breast Cancer, MDA-MB-231/ATCC
[14] = MDA-MB-435, Melanoma, MDA-MB-435
[15] = MDA-MB-468, Breast Cancer, MDA-MB-468
[16] = NCI-H23, Non-Small Cell Lung Cancer, NCI-H23
[17] = NCI-H226, Non-Small Cell Lung Cancer, NCI-H226
[18] = NCI-H322M, Non-Small Cell Lung Cancer, NCI-H322M
[19] = NCI-H460, Non-Small Cell Lung Cancer, NCI-H460
[20] = NCI-H522, Non-Small Cell Lung Cancer, NCI-H522
[21] = OVCAR-3, Ovarian Cancer, OVCAR-3
[22] = OVCAR-4, Ovarian Cancer, OVCAR-4
[23] = OVCAR-5, Ovarian Cancer, OVCAR-5
[24] = OVCAR-8, Ovarian Cancer, OVCAR-8
[25] = SK-OV-3, Ovarian Cancer, SK-OV-3

CNCCCn1c2c(c3ccc(Cl)cc3c1=O)C(=O)c1cc(OC)cnc1-2 [Compound 3]
minimal effective concentration [1]: 0.5 to 1 µM | GI50 ([2]; 786-0, Renal Cancer, 786-0): 0.32 µM | GI50 ([2]; A498, Renal Cancer, A498): 0.53 µM | GI50 [2, 4]: 0.45 µM | GI50 ([2]; ACHN, Renal Cancer, ACHN): 0.22 µM | GI50 ([2]; BT-549, Breast Cancer, BT-549): 0.65 µM | GI50 ([2]; CAKI-1, Renal Cancer, CAKI-1): 0.06 µM | GI50 ([2]; CCRF-CEM, Leukemia, CCRF-CEM): 0.06 µM | GI50 [2, 5]: 0.5 µM | GI50 [2, 6]: 0.33 µM | GI50 [2, 7]: 1.2 µM | GI50 [2, 8]: 1.41 µM | GI50 ([2]; HCT-15, Colon Cancer, HCT-15): 1.11 µM | GI50 ([2]; HCT-116, Colon Cancer, HCT-116): 0.55 µM | GI50 ([2]; HL-60, Leukemia, HL-60(TB)): 0.6 µM | GI50 [2, 9]: 0.22 µM | GI50 [2, 10]: 1.19 µM | GI50 ([2]; HT-29, Colon Cancer, HT29): 1.08 µM | GI50 [2, 11]: 1.84 µM | GI50 [2, 12]: 1.14 µM | GI50 ([2]; K562, Leukemia, K-562): 1.14 µM | GI50 ([2]; KM12, Colon Cancer, KM12): 1.1 µM | GI50 ([2]; LOX IMVI, Melanoma, LOX IMVI): 0.16 µM | GI50 ([2]; Leukemia, SR): 0.14 µM | GI50 ([2]; MCF7, Breast Cancer, MCF7): 0.05 µM | GI50 [2, 13]: 1.62 µM | GI50 [2, 14]: 1.07 µM | GI50 [2, 15]: 1.28 µM | GI50 ([2]; MOLT-4, Leukemia, MOLT-4): 0.04 µM | GI50 ([2]; Malme-3M, Melanoma, MALME-3M): 1.48 µM | GI50 ([2]; Melanoma, M14): 0.57 µM | GI50 [2, 16]: 0.92 µM | GI50 [2, 17]: 1.35 µM | GI50 [2, 18]: 1.28 µM | GI50 [2, 19]: 0.05 µM | GI50 [2, 20]: 0.37 µM | GI50 [2, 21]: 1.41 µM | GI50 [2, 22]: 1.27 µM | GI50 [2, 23]: 1.69 µM | GI50 [2, 24]: 1.18 µM | GI50 ([2]; Ovarian Cancer, NCl/ADR-RES): 0.54 µM | GI50 ([2]; Prostate Cancer, PC-3): 1.02 µM | GI50 ([2]; RPMI-8226, Leukemia, RPMI-8226): 1.47 µM | GI50 ([2]; RXF 393, Renal Cancer, RXF 393): 1.3 µM | GI50 ([2]; Renal Cancer, U0-31): 1.08 µM | GI50 ([2]; SF-268, CNS Cancer, SF-268): 0.4 µM | GI50 ([2]; SF-295, CNS Cancer, SF-295): 0.13 µM | GI50 ([2]; SF-539, CNS Cancer, SF-539): 0.73 µM | GI50 ([2]; SK-MEL-2, Melanoma, SK-MEL-2): 13.2 µM | GI50 ([2]; SK-MEL-5, Melanoma, SK-MEL-5): 1.12 µM | GI50 ([2]; SK-MEL-28, Melanoma, SK-MEL-28): 1.62 µM | GI50 [2, 25]: 0.66 µM | GI50 ([2]; SN12C, Renal Cancer, SN12C): 1.18 µM | GI50 ([2]; SNB-19, CNS Cancer, SNB-19): 0.61 µM | GI50 ([2]; SNB-75, CNS Cancer, SNB-75): 0.26 µM | GI50 ([2]; SW-620, Colon Cancer, SW-620): 0.08 µM | GI50 ([2]; T47D, Breast Cancer, T-47D): 1.12 µM | GI50 ([2]; U-251, CNS Cancer, U251): 0.3 µM | GI50 ([2]; UACC-62, Melanoma, UACC-62): 0.57 µM | GI50 ([2]; UACC-257, Melanoma, UACC-257): 2.24 µM | mean GI50 across NCI-60 panel (MGM) [2]: 600 nM | Top1 Inhibiton [3]: ++ (medium inhibition, ++, MYC expression inhibited at 2.0 μM, or no clear dose-dependent MYC inhibition)

CNCCCn1c2c(c3ccc(F)cc3c1=O)C(=O)c1cc(OC)cnc1-2 [Compound 6]
minimal effective concentration [1]: 0.5 to 1 µM | MYC-inhibitory effect (MYC protein, western blot) ([1]; MCF-7, 0.5, 1, 2, and 4 μM, 24 h): clear MYC-inhibitory effect | GI50 ([2]; 786-0, Renal Cancer, 786-0): 0.2 µM | GI50 ([2]; A498, Renal Cancer, A498): 0.37 µM | GI50 [2, 4]: 0.11 µM | GI50 ([2]; ACHN, Renal Cancer, ACHN): 0.12 µM | GI50 ([2]; BT-549, Breast Cancer, BT-549): 0.58 µM | GI50 ([2]; CCRF-CEM, Leukemia, CCRF-CEM): 0.26 µM | GI50 [2, 5]: 0.07 µM | GI50 [2, 6]: 0.2 µM | GI50 [2, 7]: 0.3 µM | GI50 [2, 8]: 1.15 µM | GI50 ([2]; HCT-15, Colon Cancer, HCT-15): 0.25 µM | GI50 ([2]; HCT-116, Colon Cancer, HCT-116): 0.14 µM | GI50 ([2]; HL-60, Leukemia, HL-60(TB)): 0.22 µM | GI50 [2, 9]: 0.14 µM | GI50 [2, 10]: 0.37 µM | GI50 ([2]; HT-29, Colon Cancer, HT29): 0.15 µM | GI50 [2, 11]: 2.24 µM | GI50 [2, 12]: 0.32 µM | GI50 ([2]; K562, Leukemia, K-562): 0.17 µM | GI50 ([2]; KM12, Colon Cancer, KM12): 0.24 µM | GI50 ([2]; LOX IMVI, Melanoma, LOX IMVI): 0.14 µM | GI50 ([2]; Leukemia, SR): 0.12 µM | GI50 ([2]; MCF7, Breast Cancer, MCF7): 0.03 µM | GI50 [2, 13]: 0.7 µM | GI50 [2, 14]: 0.47 µM | GI50 [2, 15]: 0.22 µM | GI50 ([2]; MOLT-4, Leukemia, MOLT-4): 0.04 µM | GI50 ([2]; Malme-3M, Melanoma, MALME-3M): 0.32 µM | GI50 ([2]; Melanoma, M14): 0.31 µM | GI50 [2, 16]: 0.31 µM | GI50 [2, 17]: 0.16 µM | GI50 [2, 18]: 0.45 µM | GI50 [2, 19]: 0.05 µM | GI50 [2, 20]: 0.06 µM | GI50 [2, 21]: 0.26 µM | GI50 [2, 22]: 0.42 µM | GI50 [2, 23]: 0.35 µM | GI50 [2, 24]: 0.19 µM | GI50 ([2]; Ovarian Cancer, NCl/ADR-RES): 0.43 µM | GI50 ([2]; Prostate Cancer, PC-3): 0.37 µM | GI50 ([2]; RPMI-8226, Leukemia, RPMI-8226): 0.2 µM | GI50 ([2]; RXF 393, Renal Cancer, RXF 393): 0.32 µM | GI50 ([2]; Renal Cancer, U0-31): 0.13 µM | GI50 ([2]; SF-268, CNS Cancer, SF-268): 0.38 µM | GI50 ([2]; SF-295, CNS Cancer, SF-295): 0.19 µM | GI50 ([2]; SF-539, CNS Cancer, SF-539): 0.37 µM | GI50 ([2]; SK-MEL-2, Melanoma, SK-MEL-2): 1.6 µM | GI50 ([2]; SK-MEL-5, Melanoma, SK-MEL-5): 0.31 µM | GI50 ([2]; SK-MEL-28, Melanoma, SK-MEL-28): 1.44 µM | GI50 [2, 25]: 0.23 µM | GI50 ([2]; SN12C, Renal Cancer, SN12C): 0.21 µM | GI50 ([2]; SNB-19, CNS Cancer, SNB-19): 0.22 µM | GI50 ([2]; SNB-75, CNS Cancer, SNB-75): 0.25 µM | GI50 ([2]; SW-620, Colon Cancer, SW-620): 0.18 µM | GI50 ([2]; T47D, Breast Cancer, T-47D): 0.16 µM | GI50 ([2]; TK-10, Renal Cancer, TK-10): 0.33 µM | GI50 ([2]; U-251, CNS Cancer, U251): 0.11 µM | GI50 ([2]; UACC-62, Melanoma, UACC-62): 0.61 µM | GI50 ([2]; UACC-257, Melanoma, UACC-257): 0.49 µM | mean GI50 across NCI-60 panel (MGM) [2]: 240 nM | Top1 Inhibiton [3]: + (weak inhibition, +, MYC expression inhibited at 4.0 μM)
